#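 These data come from cells grown in 96-well plates and exposed to compound for 48 hours at five concentrations. Here, GI50 denotes the concentration required for 50% inhibition of growth. TGI denotes the concentration required for complete inhibition of growth.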
# Key:
# Test in all cases: inhibition of tumour cell growth, NCI panel, 48 h
# [1] = system: MDA-MB-435
# [2] = system: NCI-H460 lung
# [3] = system: OVCAR-3 ovarian
# [4] = system: OVCAR-4 ovarian
# [5] = system: PC-3 prostate
# [6] = system: SK-MEL-5 melanoma
# [7] = system: SK-OV-3 ovarian
# [8] = system: UACC-62 melanoma
# [9] = system: UO-31 renal
# [10] = system: M14 melanoma
SMILES,GI50 [1] [µM],TGI [1] [µM],GI50 [2] [µM],TGI [2] [µM],GI50 [3] [µM],TGI [3] [µM],GI50 [4] [µM],TGI [4] [µM],GI50 [5] [µM],TGI [5] [µM],GI50 [6] [µM],TGI [6] [µM],GI50 [7] [µM],TGI [7] [µM],GI50 [8] [µM],TGI [8] [µM],GI50 [9] [µM],TGI [9] [µM],TGI [10] [µM],GI50 [10] [µM]
CCCCn1c(=O)c(/C=C/C(=O)/C=C/c2cc3ccccc3n(CCCC)c2=O)cc2ccccc21,0.206,0.478,1.8,3.49,1.21,2.47,2.78,9.12,1.79,3.86,1.77,3.28,3.59,9.35,1.61,3.06,1.53,3.21,,
CCOC(=O)/C=C/c1cccc(F)c1,,> 100,,> 100,,,,> 100,,> 100,,,,,,> 100,,> 100,> 100,
N#Cc1cc(S(=O)(=O)Nc2nc3ccccc3o2)c(SCc2ccccc2)cc1Cl,27.2,60.2,21.5,56.1,24.2,52.3,42.1,> 100,21.4,43.4,17,31.9,,,20.3,52.2,20.4,39.2,52.7,25.4
NC(Cc1ccccc1)c1nccs1 (centres undefined),,> 100,,,,> 100,,> 100,,> 100,,> 100,,> 100,,> 100,,> 100,> 100,
CC1c2[nH]c3ccccc3c2CCN1O (centres undefined),,,,,,> 100,,> 100,,,,> 100,,> 100,,> 100,,> 100,> 100,
COC(=O)C1CCc2nnc(-c3ccccc3)n21 (centres undefined),,,,> 100,,> 100,,> 100,,,,> 100,,,,> 100,,> 100,> 100,
CC(=O)NN1C(=O)C(Cc2ccccc2)c2ccccc21 (centres undefined),,,,> 100,,> 100,,> 100,,,,> 100,,> 100,,> 100,,> 100,> 100,
COc1cc2cnc3c4cc(OCc5ccccc5)ccc4ccc3c2cc1OC,,,,> 100,,> 100,,39.8,,,,76,,56.8,,> 100,,> 100,> 100,
CCC[CH2][Sn]1([CH2]CCC)[S]CC[N]1S(=O)(=O)c1ccc(C)cc1,,,2.5,5.44,1.59,2.93,1.85,3.27,,,1.68,3.2,,,1.47,3.13,1.14,2.35,3.12,1.64
COc1ccc(OC(C)C(=O)O)c2c(=O)ccccc12 (centres undefined),,,,> 100,,> 100,,> 100,,,,> 100,,> 100,,> 100,,> 100,> 100,

# — PubChem BioAssay (NCI)
